Experimental data from ChEMBL document CHEMBL1151272, “Anti-inflammatory acylphloroglucinol derivatives from Hops (Humulus lupulus)” (J Nat Prod, 2005).

Key:
[1] = target: T1, Prostaglandin G/H synthase 1 (Ovis aries, UniProt P05979); assay: Inhibition of sheep COX1 measured by oxygen consumption
T1 sequence (P05979 whole entry): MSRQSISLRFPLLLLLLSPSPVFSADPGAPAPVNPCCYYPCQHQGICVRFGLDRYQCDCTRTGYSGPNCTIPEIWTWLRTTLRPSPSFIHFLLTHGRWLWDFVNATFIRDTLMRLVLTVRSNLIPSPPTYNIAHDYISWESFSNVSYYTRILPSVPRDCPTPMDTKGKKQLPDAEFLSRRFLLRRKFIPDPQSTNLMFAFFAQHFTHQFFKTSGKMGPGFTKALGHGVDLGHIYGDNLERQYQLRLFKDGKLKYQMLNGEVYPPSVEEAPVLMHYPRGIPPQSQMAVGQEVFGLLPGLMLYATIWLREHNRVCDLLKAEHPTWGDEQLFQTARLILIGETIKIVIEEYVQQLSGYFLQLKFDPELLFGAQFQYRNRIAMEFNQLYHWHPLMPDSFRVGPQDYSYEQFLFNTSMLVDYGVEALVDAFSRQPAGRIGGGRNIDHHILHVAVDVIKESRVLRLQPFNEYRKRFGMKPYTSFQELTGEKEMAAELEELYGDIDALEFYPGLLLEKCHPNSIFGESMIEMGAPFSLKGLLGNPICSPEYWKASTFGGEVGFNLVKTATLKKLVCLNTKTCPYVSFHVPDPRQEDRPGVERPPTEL

[2] = target: T2, Prostaglandin G/H synthase 1 (Ovis aries) (UniProt P05979); assay: Inhibition of sheep COX1 measured by oxygen consumption at 100 uM
T2 sequence (whole entry): T1 sequence (P05979 whole entry)

IC50 [1] [µM] | Compound | also measured
 | Oc1cc(O)cc(O)c1 [PHLOROGLUCINOL] | AC50 [1]: Active
 | CC(C)CC(=O)c1c(O)cc(O)cc1O[C@@H]1O[C@H](CO)[C@@H](O)[C@H](O)[C@H]1O | inhibition [2]: 12%
3.8 | CC(C)C(=O)c1c(O)cc(O)cc1O [PHLOROISOBUTYROPHENONE] | 
131 | CCC(C)C(=O)c1c(O)cc(O)cc1O[C@@H]1O[C@H](CO)[C@@H](O)[C@H](O)[C@H]1O (stereo partly specified) | 
23.7 | CC(C)C(=O)c1c(O)cc(O)cc1O[C@@H]1O[C@H](CO)[C@@H](O)[C@H](O)[C@H]1O | 
58.7 | CC(C)C(=O)c1c(O)cc(O[C@@H]2O[C@H](CO)[C@@H](O)[C@H](O)[C@H]2O)cc1O | 
